We go through five molecules from DBAASP.

What all share (assay): ≥ marks a high value that may be exact or a test limit, other limits are often not marked, values filed in µg/mL are converted to µM
The subject of experiment [1] is Candida tropicalis ATCC 750.
For experiment [2], the system named is Candida albicans ATCC MYA-2876.
In experiment [3] the test system is Bacillus subtilis ATCC 6633.
In experiment [4] the test system is Staphylococcus aureus ATCC BAA-44.
Experiment [5] has as its system Pseudomonas aeruginosa ATCC BAA-427.
For experiment [6], the system named is Staphylococcus aureus ATCC 700698.
For experiment [7], the system named is Escherichia coli ATCC 9637.
Experiment [8] concerns Staphylococcus aureus ATCC 25923.
Experiment [9] deals with Staphylococcus aureus ATCC 33592.
Experiment [10] concerns Klebsiella pneumoniae ATCC 27736.
In experiment [11] the test system is Candida parapsilosis ATCC 22019.
The test system of the next experiment is Cryptococcus neoformans.
Experiment [12] deals with Candida albicans ATCC 10231.
Experiment [13] relates to Staphylococcus aureus ATCC 29213.
Experiment [14] has as its system Staphylococcus aureus ATCC 700699.
For experiment [15], the system named is Pseudomonas syringae pv. tomato NCPPB 1106.
In experiment [16] the test system is Serratia marcescens ATCC 17991.
Experiment [17] concerns Sinorhizobium meliloti ZB314.
Experiment [18] deals with Escherichia coli NCTC 9001.
Experiment [19] concerns Bacillus thuringiensis serovar tenebrionis DSM 2803.
In experiment [20] the test system is Bacillus megaterium QMB 1551.
Experiment [21] relates to Brenneria salicis NCPPB 2530.
Experiment [22] concerns Bacillus subtilis NRRL B-237.
Experiment [23] concerns Clavibacter michiganensis subsp. insidiosus NCPPB 1109.
In experiment [24] the test system is Agrobacterium tumefaciens DSM 3129.
Experiment [25] deals with Salmonella typhimurium ATCC 23565.
Another experiment has as its system Shigella flexneri CP87.
The subject of experiment [26] is Paenibacillus alvei LMG 6922.
Experiment [27] deals with Salmonella enterica subsp. enterica serovar Newport.
Experiment [28] relates to Staphylococcus aureus VRSA1.
Experiment [29] relates to Klebsiella pneumoniae ATCC BAA-2146.
The subject of experiment [30] is Acinetobacter baumannii ATCC 19606.
The test system of experiment [31] is Escherichia coli ATCC 25922.
In experiment [32] the test system is Streptococcus pneumoniae ATCC 700677.
For experiment [33], the system named is Pseudomonas aeruginosa ATCC 27853.
Experiment [34] has as its system Staphylococcus aureus ATCC 43300.
For experiment [35], the system named is Staphylococcus aureus NRS 17.
Experiment [36] deals with Klebsiella pneumoniae ATCC 700603.
The test system of experiment [37] is Staphylococcus aureus VRSA10.
In experiment [38] the test system is Pseudomonas aeruginosa FADDI-PA070.
Experiment [39] relates to Staphylococcus aureus NRS 1.
The test system of experiment [40] is Franconibacter helveticus DSM 18390.
The test system of experiment [41] is Escherichia coli DSM 1116.
Experiment [42] relates to Staphylococcus xylosus DSM 20267.
For experiment [43], the system named is Bacillus subtilis DSM 347.

Molecules are shown by their SMILES. In brackets after ≈: the same amount, converted by molar mass. Several values for one entry are separate records, joined by “and”; a condition that tells them apart may be missing. Identical values can stand only once.

Broadly, the MIC is the lowest concentration that inhibits growth of the organism. Consider `CC[C@H](C)[C@H](NC(=O)[C@H](Cc1ccc(O)cc1)NC(=O)[C@@H](N)CCCN=C(N)N)C(=O)N[C@@H](Cc1ccc(O)cc1)C(=O)N[C@@H](CC(C)C)C(=O)N[C@@H](CO)C(=O)NCC(=O)N[C@H](C(=O)N[C@@H](CC(=O)O)C(=O)N[C@@H](CCCN=C(N)N)C(=O)N[C@H](C(=O)N[C@H](C(=O)N[C@@H](CCCN=C(N)N)C(=O)N[C@@H](C)C(=O)N[C@@H](CCCCN)C(=O)N[C@@H](CC(C)C)C(=O)NCC(=O)N[C@@H](CCCCN)C(=O)O)[C@@H](C)CC)[C@@H](C)CC)[C@@H](C)O` [RYIYLSGTDRIIRAKLGK], for which the MIC in [1] and in experiment [2] was at least 40 µM each time.

For the molecule `CC[C@H](C)[C@H](NC(=O)[C@H](CCCN=C(N)N)NC(=O)CNC(=O)[C@H](CC(C)C)NC(=O)[C@H](CCCCN)NC(=O)[C@H](CCCCN)NC(=O)[C@H](CO)NC(=O)[C@H](Cc1ccccc1)NC(=O)[C@H](Cc1c[nH]c2ccccc12)NC(=O)[C@H](CCCCN)NC(=O)[C@@H](NC(=O)[C@@H](N)Cc1ccccc1)C(C)C)C(=O)N[C@@H](CC(C)C)C(N)=O` [FVKWFSKKLGRIL], the MIC in experiment [3] was 15.2 µM (≈ 24.6 µg/mL); in [4] it was 30 µM (≈ 48.6 µg/mL); in [5] it was 15 µM (≈ 24.3 µg/mL); in [6], 30 µM (≈ 48.6 µg/mL); in experiment [7], 12.5 µM (≈ 20.3 µg/mL); in experiment [8], 25 µM and 30 µM and 15.4 µM. Besides, the MIC in [9] was 30 µM (≈ 48.6 µg/mL); in experiment [10], 15 µM (≈ 24.3 µg/mL); in [11], 30 µM (≈ 48.6 µg/mL); against Cryptococcus neoformans, 15 µM (≈ 24.3 µg/mL); in [12] it was 30 µM (≈ 48.6 µg/mL); in experiment [13], over 30 µM. The same molecule showed an MIC in experiment [14] of 30 µM (≈ 48.6 µg/mL).

Regarding `CC[C@H](C)[C@H](NC(=O)[C@@H]1CCCN1C(=O)[C@H](CCCN=C(N)N)NC(=O)[C@H](CC(N)=O)NC(=O)[C@H](CC(N)=O)NC(=O)CN)C(=O)N[C@@H](Cc1ccc(O)cc1)C(=O)N[C@H](C(=O)N1CCC[C@H]1C(=O)N[C@@H](CCC(N)=O)C(=O)N1CCC[C@H]1C(=O)N[C@@H](CCCN=C(N)N)C(=O)N1CCC[C@H]1C(=O)N1CCC[C@H]1C(=O)N[C@@H](Cc1cnc[nH]1)C(=O)N1CCC[C@H]1C(=O)N[C@@H](CCCN=C(N)N)C(=O)N[C@@H](CC(C)C)C(=O)O)[C@@H](C)CC` [GNNRPIYIPQPRPPHPRL], the MIC is 0.0471 µM (≈ 0.1 µg/mL) in experiment [15]; at least 94.2 µM in experiment [16]; 0.0094 µM (≈ 0.02 µg/mL) in [17]; 0.0942 µM (≈ 0.2 µg/mL) in experiment [18]; at least 94.2 µM in experiment [19]; at least 47.1 µM in experiment [20]. In addition, the MIC in experiment [21] is 0.0094 µM (≈ 0.02 µg/mL); in experiment [22], at least 94.2 µM; in experiment [23] it was at least 47.1 µM; in [24] it was 0.0942 µM (≈ 0.2 µg/mL); in experiment [25], 0.0471 µM (≈ 0.1 µg/mL); in the experiment on Shigella flexneri CP87, 0.0471 µM (≈ 0.1 µg/mL). Besides, the MIC is at least 94.2 µM in experiment [26] and 0.0942 µM (≈ 0.2 µg/mL) in experiment [27].

On to `CC[C@H](C)[C@H](N)C(=O)N[C@@H](CC(=O)O)C(=O)N[C@@H](Cc1c[nH]c2ccccc12)C(=O)N[C@@H](CCCCN)C(=O)N[C@@H](CCCCN)C(=O)N[C@H](C(=O)N[C@@H](CC(=O)O)C(=O)N[C@@H](Cc1c[nH]c2ccccc12)C(=O)N[C@@H](CCCCN)C(=O)N[C@@H](CCCCN)C(=O)N[C@H](C(=O)N[C@@H](CO)C(=O)N[C@@H](CCCCN)C(=O)N[C@@H](CCCCN)C(=O)N[C@H](C(=O)N[C@@H](CO)C(=O)N[C@@H](CCCCN)C(=O)N[C@H](C(=O)N[C@@H](CCSC)C(=O)N[C@@H](CC(C)C)C(=O)N[C@@H](CCCCN)C(=O)N[C@@H](C)C(=O)N[C@@H](CO)C(=O)N[C@@H](CCCCN)C(=O)N[C@@H](Cc1ccccc1)C(=O)N[C@@H](CC(C)C)C(N)=O)C(C)C)[C@@H](C)O)C(C)C)C(C)C` [IDWKKVDWKKVSKKTSKVMLKASKFL], for which the MIC in experiment [28] was 12.8 µM (≈ 40 µg/mL); in experiment [29] it was 2.26 µM (≈ 7.06 µg/mL); in [30], 0.566 µM (≈ 1.77 µg/mL); in experiment [31] it was 4.53 µM (≈ 14.1 µg/mL); in experiment [32], 12.8 µM (≈ 40 µg/mL); in experiment [33], over 12.8 µM. Besides, the MIC in [34] is over 12.8 µM; in [35] it was 12.8 µM (≈ 40 µg/mL); in experiment [36], 9.05 µM (≈ 28.3 µg/mL); in [37], 12.8 µM (≈ 40 µg/mL); in [38], 12.8 µM (≈ 40 µg/mL); in [39], 12.8 µM (≈ 40 µg/mL).

Turning to `CC(C)C[C@H](NC(=O)[C@H](CCCCN)NC(=O)[C@H](CC(C)C)NC(=O)[C@H](CCCCN)NC(=O)[C@H](CC(C)C)NC(=O)[C@@H](N)CCCCN)C(N)=O` [KLKLKL], the MIC in experiment [40], in experiment [41], in experiment [42] and in experiment [43] was at least 345 µM in each case.
